Measurements: patent US8937183B2, “Detection of hydrogen peroxide” (Promega Corporation, priority 2011, dated 2015)

Test: Light generation from compounds following incubation with hydrogen peroxide in different pH solutions (D-cysteine conversion, LDR)
Assay type: biochemical
Details: for Signal to Background Ratios: signal with peroxide to background no peroxide
Method: In this experiment, various compounds were tested for their ability to detect hydrogen peroxide in different pH solutions. Several compounds are shown to give much better signal strength and signal to background ratios than PBI 3048 (Example 23). 4 mg/ml solutions of compounds PBI 4480, 4481, 4452, 4470, 4472, 3048 (FIGS. 1 and 2) were made by dissolving them in DMSO (Fluka 41641). 30 μl of the compound solutions was diluted to 1.5 ml with Nanopure water, and 50 μl aliquots added as follows into a white, 96-well luminometer plate: PBI 4481, row A1-12; PBI 4480, row B1-12; PBI 4452, row C1-12; PBI 3048, row D1-12; PBI 4472, row E1-12 and PBI 4470, row F1-12.
25 μl of 200 mM TRIS buffer, pH 7.6 was added to wells A1-F4, 25 μl of 200 mM TRIS buffer, pH 8.8 was added to wells A5-F8, and 25 μl of 200 mM Tris buffer, pH 10.4 was added […].
30% hydrogen peroxide (Sigma H 1009-5 ml) was diluted to 40 μM in Nanopure water, and 25 μl added to columns 3, 4, 7, 8, 11 and 12 of the plate. 25 μl water was added to columns 1, 2, 5, 6, 9, and 10 of the plate, and the plate incubated at room temperature for 60 minutes.
A conversion solution was made by mixing 100 μl of 100 mM D-cysteine, 1 ml Tris Buffer pH 8.8 and 8.9 ml nanopure water. After mixing, 80 μl of the solution was added to wells A1-F12 of a new luminometer plate.
After incubation, 20 μl of sample from wells A1-F12 of the first plate was transferred to the same well in the new luminometer plate. The new plate was incubated at room temperature for 5 minutes, 100 μl of LDR (Example 23) was added to wells A1-F12, and bioluminescence detected on a Glo Max® luminometer (Promega).
The RLUs for the duplicate wells were averaged. The averages for the wells containing hydrogen peroxide were compared to the wells without hydrogen peroxide at the same pH (Table 2). BZT is used to designate benzothiazole derivatives of the compounds.
The Signal to Background (S/B) ratio is used to compare assay reagents with very difference signal strengths. An assay with a higher S/B ratio is often considered a better assay than one with a smaller S/B ratio (with all other factors being relatively equal).

SMILES: O=C(O)C1CSC(c2nc3ccc(OCc4ccc(B(O)O)cc4)cc3s2)=N1 (stereo not drawn) [PBI 3048]
- Signal to Background Ratios (pH 7.6): 3.0
- averaged RLUs (bioluminescence) (pH 7.6 TRIS buffer, No H2O2, 60 minutes): 569,141 RLU
- averaged RLUs (bioluminescence) (pH 7.6 TRIS buffer, With H2O2 (25 μl of 40 μM added), 60 minutes): 1,726,143 RLU
- Signal to Background Ratios (pH 8.8): 4.5
- averaged RLUs (bioluminescence) (pH 8.8 TRIS buffer, No H2O2, 60 minutes): 558,869 RLU
- averaged RLUs (bioluminescence) (pH 8.8 TRIS buffer, With H2O2 (25 μl of 40 μM added), 60 minutes): 2,499,869 RLU
- Signal to Background Ratios (pH 10.4): 6.7
- averaged RLUs (bioluminescence) (pH 10.4 Tris buffer, No H2O2, 60 minutes): 558,333 RLU
- averaged RLUs (bioluminescence) (pH 10.4 Tris buffer, With H2O2 (25 μl of 40 μM added), 60 minutes): 3,768,437 RLU
